ChEMBL document CHEMBL1201862, “PubChem BioAssay data set” (2004)
Activity calls are given as the source filed them.

How the values were obtained:
[1] = biological target: Serine/threonine-protein kinase PAK 4 (Homo sapiens, UniProt O96013); format: functional;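 further: value obtained within a kinome profiling panel in which PAK4 was one of the panel members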
[2] = biological target: Ribosomal protein S6 kinase alpha-5 (Homo sapiens, UniProt O75582); format: functional
[3] = biological target: Mitogen-activated protein kinase 9 (Homo sapiens, UniProt P45984); format: functional;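 further: value from a kinome panel profiling assay, MAPK9 panel entry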
Mitogen-activated protein kinase 9, sequence (P45984 whole entry): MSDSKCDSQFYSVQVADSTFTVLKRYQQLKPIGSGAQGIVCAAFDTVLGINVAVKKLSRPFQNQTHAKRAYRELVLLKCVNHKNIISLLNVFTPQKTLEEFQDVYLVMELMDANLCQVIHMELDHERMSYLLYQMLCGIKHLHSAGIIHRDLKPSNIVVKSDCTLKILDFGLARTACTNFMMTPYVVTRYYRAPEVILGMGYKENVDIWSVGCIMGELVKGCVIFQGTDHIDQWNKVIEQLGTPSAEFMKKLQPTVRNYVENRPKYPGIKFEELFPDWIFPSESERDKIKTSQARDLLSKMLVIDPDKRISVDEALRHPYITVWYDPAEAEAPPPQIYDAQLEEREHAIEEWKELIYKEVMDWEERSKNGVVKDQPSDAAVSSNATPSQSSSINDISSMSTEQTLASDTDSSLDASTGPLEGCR

[4] = biological target: Non-receptor tyrosine-protein kinase TYK2 (Homo sapiens, UniProt P29597); format: functional
[5] = biological target: Mast/stem cell growth factor receptor Kit (Homo sapiens, UniProt P10721); format: functional;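 further: KIT entry within a kinase panel assay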
[6] = biological target: Aurora kinase A (Homo sapiens, UniProt O14965); format: functional;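 further: value from the Navigating the Kinome kinase panel profiling, panel entry STK6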
[7] = biological target: Eukaryotic elongation factor 2 kinase (Homo sapiens, UniProt O00418); format: functional
[8] = biological target: Tyrosine-protein kinase receptor TYRO3 (Homo sapiens, UniProt Q06418); format: functional;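 further: TYRO3 value obtained as one member of a kinome-wide profiling panel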
[9] = biological target: BDNF/NT-3 growth factors receptor (Homo sapiens, UniProt Q16620); format: functional;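 further: NTRK2 measured as one member of a broad kinome-wide kinase profiling panel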
BDNF/NT-3 growth factors receptor, sequence (Q16620 whole entry): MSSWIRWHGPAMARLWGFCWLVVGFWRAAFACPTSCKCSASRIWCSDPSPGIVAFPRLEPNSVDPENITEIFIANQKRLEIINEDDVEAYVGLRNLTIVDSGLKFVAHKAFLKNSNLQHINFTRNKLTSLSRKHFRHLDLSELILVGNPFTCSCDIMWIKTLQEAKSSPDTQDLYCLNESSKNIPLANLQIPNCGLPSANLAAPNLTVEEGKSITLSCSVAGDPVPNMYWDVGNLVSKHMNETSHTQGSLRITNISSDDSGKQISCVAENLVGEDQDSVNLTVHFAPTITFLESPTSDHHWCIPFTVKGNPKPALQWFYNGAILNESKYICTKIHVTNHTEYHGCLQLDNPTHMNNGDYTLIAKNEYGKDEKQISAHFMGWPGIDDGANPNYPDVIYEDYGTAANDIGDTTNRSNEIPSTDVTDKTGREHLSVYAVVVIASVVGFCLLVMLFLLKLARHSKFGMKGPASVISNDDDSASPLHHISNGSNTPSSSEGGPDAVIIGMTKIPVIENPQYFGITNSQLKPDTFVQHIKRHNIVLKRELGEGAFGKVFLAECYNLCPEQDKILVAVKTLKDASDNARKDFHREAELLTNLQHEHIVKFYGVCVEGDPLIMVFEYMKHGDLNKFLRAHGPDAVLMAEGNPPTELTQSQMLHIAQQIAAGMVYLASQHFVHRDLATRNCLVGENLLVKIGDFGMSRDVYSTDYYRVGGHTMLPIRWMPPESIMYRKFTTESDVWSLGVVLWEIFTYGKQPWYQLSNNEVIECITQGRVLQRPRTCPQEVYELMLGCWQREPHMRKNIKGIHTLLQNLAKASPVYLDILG

[10] = biological target: Aurora kinase B (Homo sapiens, UniProt Q96GD4); format: functional
[11] = biological target: Rho-associated protein kinase 1 (Homo sapiens, UniProt Q13464); format: functional;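 further: measured within a broad kinome-wide panel profiling many kinases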
[12] = biological target: Tyrosine-protein kinase SYK (Homo sapiens, UniProt P43405); format: functional
[13] = biological target: Death-associated protein kinase 3 (Homo sapiens, UniProt O43293); format: functional;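 further: measured as one member of a kinome-wide profiling panel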
Death-associated protein kinase 3, sequence (O43293 whole entry): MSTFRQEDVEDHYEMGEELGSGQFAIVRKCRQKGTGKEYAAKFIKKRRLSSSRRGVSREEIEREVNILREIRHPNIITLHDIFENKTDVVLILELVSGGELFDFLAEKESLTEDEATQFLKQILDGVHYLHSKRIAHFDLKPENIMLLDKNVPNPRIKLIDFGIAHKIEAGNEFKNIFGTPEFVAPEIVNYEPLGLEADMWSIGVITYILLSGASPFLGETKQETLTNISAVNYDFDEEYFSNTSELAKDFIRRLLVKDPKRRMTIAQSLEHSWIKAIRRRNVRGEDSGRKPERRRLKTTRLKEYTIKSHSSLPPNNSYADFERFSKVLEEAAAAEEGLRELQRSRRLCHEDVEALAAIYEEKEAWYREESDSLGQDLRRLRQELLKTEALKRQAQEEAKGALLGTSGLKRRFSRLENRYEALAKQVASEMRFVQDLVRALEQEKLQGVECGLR

[14] = biological target: Tyrosine-protein kinase Fer (Homo sapiens, UniProt P16591); format: functional;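 further: FER tested as one member of a kinome panel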
Tyrosine-protein kinase Fer, sequence (P16591 whole entry): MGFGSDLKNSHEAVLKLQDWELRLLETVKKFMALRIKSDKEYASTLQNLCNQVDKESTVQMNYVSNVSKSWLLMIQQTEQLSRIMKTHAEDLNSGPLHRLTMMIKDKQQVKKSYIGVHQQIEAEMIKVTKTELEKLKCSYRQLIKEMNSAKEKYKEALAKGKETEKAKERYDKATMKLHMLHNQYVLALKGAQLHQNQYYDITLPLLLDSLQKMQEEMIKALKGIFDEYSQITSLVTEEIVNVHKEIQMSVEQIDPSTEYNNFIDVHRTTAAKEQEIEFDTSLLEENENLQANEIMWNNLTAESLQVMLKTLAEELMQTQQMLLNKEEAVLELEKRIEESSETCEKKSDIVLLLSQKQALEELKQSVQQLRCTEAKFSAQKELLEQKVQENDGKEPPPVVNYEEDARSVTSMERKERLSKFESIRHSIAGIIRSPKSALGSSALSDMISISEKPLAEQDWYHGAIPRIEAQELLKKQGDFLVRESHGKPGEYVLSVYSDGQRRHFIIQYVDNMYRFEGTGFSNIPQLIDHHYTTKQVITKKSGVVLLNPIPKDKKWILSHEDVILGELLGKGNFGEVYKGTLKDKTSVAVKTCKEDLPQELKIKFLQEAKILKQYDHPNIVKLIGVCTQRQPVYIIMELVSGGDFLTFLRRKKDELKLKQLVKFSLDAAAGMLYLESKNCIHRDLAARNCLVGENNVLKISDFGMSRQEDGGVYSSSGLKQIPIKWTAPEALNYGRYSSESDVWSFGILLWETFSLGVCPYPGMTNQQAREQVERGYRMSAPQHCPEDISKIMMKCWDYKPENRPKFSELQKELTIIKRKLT

[15] = biological target: Glycogen synthase kinase-3 alpha (Homo sapiens, UniProt P49840); format: functional;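 further: GSK3A result taken from a broad kinome-wide kinase panel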
Glycogen synthase kinase-3 alpha, sequence (P49840 whole entry): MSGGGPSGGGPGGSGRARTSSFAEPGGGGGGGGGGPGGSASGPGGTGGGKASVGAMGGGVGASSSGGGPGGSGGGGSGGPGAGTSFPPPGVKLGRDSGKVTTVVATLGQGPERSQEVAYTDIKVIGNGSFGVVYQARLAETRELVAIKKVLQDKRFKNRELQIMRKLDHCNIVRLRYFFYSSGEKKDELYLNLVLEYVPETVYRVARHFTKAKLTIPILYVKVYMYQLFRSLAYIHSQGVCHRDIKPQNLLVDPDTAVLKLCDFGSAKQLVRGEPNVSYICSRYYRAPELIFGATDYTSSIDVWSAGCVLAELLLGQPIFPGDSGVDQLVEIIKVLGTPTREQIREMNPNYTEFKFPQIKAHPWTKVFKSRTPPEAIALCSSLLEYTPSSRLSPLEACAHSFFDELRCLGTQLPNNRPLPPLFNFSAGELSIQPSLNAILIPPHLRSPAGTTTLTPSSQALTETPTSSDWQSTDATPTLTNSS

[16] = biological target: Protein kinase C delta type (Homo sapiens, UniProt Q05655); format: functional
Protein kinase C delta type, sequence (Q05655 whole entry): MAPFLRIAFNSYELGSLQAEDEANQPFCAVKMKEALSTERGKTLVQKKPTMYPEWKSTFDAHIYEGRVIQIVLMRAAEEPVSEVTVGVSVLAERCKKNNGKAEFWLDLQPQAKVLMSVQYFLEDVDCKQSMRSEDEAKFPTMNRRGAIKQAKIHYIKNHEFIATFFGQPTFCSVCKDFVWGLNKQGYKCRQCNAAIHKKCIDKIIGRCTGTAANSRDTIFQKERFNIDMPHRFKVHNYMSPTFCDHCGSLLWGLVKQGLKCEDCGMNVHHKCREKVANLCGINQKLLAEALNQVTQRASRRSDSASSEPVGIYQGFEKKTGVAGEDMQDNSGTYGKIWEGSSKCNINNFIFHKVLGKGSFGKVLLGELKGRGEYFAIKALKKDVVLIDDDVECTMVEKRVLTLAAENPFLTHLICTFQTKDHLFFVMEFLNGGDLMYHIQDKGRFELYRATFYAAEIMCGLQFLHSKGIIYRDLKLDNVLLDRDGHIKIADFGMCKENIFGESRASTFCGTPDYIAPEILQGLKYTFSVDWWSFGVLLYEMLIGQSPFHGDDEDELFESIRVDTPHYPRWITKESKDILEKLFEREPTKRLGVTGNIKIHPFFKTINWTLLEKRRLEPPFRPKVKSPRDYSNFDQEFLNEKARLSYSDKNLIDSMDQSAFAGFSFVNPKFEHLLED

[17] = biological target: Protein kinase C zeta type (Homo sapiens, UniProt Q05513); format: functional;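 further: measured as one member of a broad kinase profiling panel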
[18] = biological target: Serine/threonine-protein kinase pim-3 (Homo sapiens, UniProt Q86V86); format: functional;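 further: value obtained as one member of a broad kinase panel profiling effort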
[19] = biological target: High affinity nerve growth factor receptor (Homo sapiens, UniProt P04629); format: functional;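 further: NTRK1 tested as one member of a kinome-wide profiling panel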
[20] = biological target: Tyrosine-protein kinase ITK/TSK (Homo sapiens, UniProt Q08881); format: functional;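 further: affinity for ITK measured as one member of a broad kinase panel profiling binding across the kinome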
[21] = biological target: Receptor-type tyrosine-protein kinase FLT3 (Homo sapiens, UniProt P36888); format: functional;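 further: FLT3 was tested as one member of a kinome-wide kinase panel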
[22] = biological target: Testis-specific serine/threonine-protein kinase 1 (Homo sapiens, UniProt Q9BXA7); format: functional
[23] = biological target: Beta-galactosidase (Escherichia coli, UniProt Q8VNN2); assay: beta-galactosidase enzyme inhibitors and activators, dose response, artefact control for CCR6 antagonist project, biochemical, E. coli enzyme, set 3 (AID 504712); format: functional
[24] = biological target: Nonstructural protein 1 (Influenza A virus, UniProt Q194T2); format: functional, Influenza A virus (A/California/07/2009(H1N1))
[25] = tested on: BJ; assay: cytotoxicity toward BJ-TERT fibroblasts, dose response, cell-based, RAS-independent, luminescence (AID 1933); format: functional; details: Homo sapiens
[26] = growth suppression of PTEN-null colon cells, dose response, cell-based, HCT116 PTEN knockout (AID 1047); format: functional;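 further: HCT116 colon tumor cells with PTEN knocked out; cells exposed to compound for 60 hours before readout; potency for loss of cell viability measured by luminescence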
[27] = cytotoxicity toward DRD oncogenic fibroblasts, dose response, cell-based, non-viral oncogenic, luminescence (AID 1934); format: functional; details: Homo sapiens
[28] = biological target: T1, Sentrin-specific protease 8 (Homo sapiens, UniProt Q96LD8); format: functional
T1 sequence (Q96LD8 whole entry): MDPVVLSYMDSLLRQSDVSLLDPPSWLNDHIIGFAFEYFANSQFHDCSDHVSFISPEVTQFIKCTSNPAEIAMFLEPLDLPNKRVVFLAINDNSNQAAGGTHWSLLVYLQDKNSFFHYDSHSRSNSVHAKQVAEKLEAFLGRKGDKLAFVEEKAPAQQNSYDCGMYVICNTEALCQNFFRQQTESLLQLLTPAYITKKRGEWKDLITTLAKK

[29] = biological target: Large T antigen (Simian virus 40, UniProt P03070); format: functional, Betapolyomavirus macacae;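 further: Confirmatory-stage PubChem screen for compounds that inhibit SV40 T antigen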
[30] = biological target: Aspartyl aminopeptidase (Plasmodium falciparum 3D7, UniProt Q8I2J3)
Aspartyl aminopeptidase, sequence (Q8I2J3 whole entry): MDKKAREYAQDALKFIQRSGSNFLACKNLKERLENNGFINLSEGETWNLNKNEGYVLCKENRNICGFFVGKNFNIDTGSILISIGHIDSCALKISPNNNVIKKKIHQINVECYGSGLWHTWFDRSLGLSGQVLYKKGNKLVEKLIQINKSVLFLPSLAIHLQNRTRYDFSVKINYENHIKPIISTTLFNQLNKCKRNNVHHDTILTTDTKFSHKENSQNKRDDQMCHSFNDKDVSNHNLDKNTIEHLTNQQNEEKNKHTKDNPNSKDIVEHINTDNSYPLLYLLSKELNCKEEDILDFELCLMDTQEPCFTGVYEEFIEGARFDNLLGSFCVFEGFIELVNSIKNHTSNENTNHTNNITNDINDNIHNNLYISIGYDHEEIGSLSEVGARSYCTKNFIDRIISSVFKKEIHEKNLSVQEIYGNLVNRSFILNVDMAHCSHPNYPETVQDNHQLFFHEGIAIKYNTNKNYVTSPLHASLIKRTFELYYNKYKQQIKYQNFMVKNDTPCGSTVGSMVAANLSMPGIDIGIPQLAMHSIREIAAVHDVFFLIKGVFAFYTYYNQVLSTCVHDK

[31] = biological target: T2, Tyrosyl-DNA phosphodiesterase 2 (Homo sapiens, UniProt O95551); assay: human TDP2 enzyme inhibitors, dose response, biochemical, epi absorbance, IC50 (AID 743297)
T2 sequence (O95551 whole entry): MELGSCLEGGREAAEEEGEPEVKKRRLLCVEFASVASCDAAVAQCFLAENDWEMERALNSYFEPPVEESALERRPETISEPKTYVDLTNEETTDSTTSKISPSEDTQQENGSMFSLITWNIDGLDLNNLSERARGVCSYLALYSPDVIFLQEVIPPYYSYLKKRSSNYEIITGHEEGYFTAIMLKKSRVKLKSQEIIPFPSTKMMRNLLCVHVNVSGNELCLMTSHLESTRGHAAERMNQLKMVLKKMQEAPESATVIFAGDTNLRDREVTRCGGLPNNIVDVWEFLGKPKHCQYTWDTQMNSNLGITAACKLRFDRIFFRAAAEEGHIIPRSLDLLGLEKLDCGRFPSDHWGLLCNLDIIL

[32] = biological target: T3, Streptokinase A (Streptococcus pyogenes serotype M1, UniProt P10520); assay: S. pyogenes streptokinase expression inhibitors, potency, dose response, plasminogen activation absorbance, OD405 (AID 1914); format: functional, Streptococcus pyogenes M1 GAS;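 further: secreted streptokinase activity via plasminogen activation per viability signal from cell pellet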
T3 sequence (P10520 whole entry): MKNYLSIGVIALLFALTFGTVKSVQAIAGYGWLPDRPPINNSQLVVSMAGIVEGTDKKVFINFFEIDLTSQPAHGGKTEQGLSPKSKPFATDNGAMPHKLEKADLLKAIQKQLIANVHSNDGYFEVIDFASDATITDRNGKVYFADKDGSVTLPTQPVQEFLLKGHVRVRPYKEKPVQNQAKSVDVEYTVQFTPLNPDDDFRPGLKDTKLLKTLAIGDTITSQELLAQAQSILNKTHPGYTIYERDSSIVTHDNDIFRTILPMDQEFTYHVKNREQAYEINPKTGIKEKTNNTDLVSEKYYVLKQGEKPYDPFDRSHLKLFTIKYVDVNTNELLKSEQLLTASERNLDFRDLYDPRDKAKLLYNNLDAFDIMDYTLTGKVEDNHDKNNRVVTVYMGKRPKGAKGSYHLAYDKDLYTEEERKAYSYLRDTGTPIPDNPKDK

[33] = non-specific cell cytotoxicity, dose response, cytotoxicity control for PAX8 inhibitor project, plate reader, dry powder samples (AID 743021); format: functional, cell-based

Serine/threonine-protein kinase PAK 4, sequence (O96013 whole entry): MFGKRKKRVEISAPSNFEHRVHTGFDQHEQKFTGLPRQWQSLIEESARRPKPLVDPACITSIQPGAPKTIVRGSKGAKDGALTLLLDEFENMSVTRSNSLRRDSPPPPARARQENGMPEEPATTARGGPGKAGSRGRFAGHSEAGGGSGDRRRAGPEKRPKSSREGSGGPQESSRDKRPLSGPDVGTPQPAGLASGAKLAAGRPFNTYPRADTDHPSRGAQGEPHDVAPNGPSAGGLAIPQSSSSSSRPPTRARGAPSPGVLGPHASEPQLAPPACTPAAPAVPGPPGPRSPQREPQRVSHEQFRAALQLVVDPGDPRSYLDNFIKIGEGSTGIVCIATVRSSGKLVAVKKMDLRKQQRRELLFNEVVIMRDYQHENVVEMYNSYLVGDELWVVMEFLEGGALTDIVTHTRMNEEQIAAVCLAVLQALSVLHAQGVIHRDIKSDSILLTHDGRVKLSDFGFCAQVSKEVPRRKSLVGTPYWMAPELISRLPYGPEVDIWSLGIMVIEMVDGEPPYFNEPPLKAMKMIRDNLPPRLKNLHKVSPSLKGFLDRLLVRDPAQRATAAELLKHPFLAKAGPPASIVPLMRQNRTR

Which results are given for O=C1Nc2ccc3ncsc3c2C1=CNc1ccc(S(=O)(=O)Nc2ccccn2)cc1?
Ki [1]: 0.2 µM (active); Ki [2]: 0.794 µM (active); Ki [3]: 0.126 µM (active); Ki [4]: 0.251 µM (active); Ki [5]: > 1.26 µM (inactive); Ki [6]: 0.0158 µM (active); Ki [7]: > 3.98 µM (inactive); Ki [8]: 0.126 µM (active); Ki [9]: 0.0794 µM (active); Ki [10]: 0.00398 µM (active); Ki [11]: 0.316 µM (active); Ki [12]: > 1.58 µM (inactive); Ki [13]: 0.0794 µM (active); Ki [14]: 1.26 µM (active); Ki [15]: 0.00398 µM (active); Ki [16]: 1.26 µM (active); Ki [17]: > 7.94 µM (inactive); Ki [18]: 1.26 µM (active); Ki [19]: 0.02 µM (active); Ki [20]: 0.126 µM (active); Ki [21]: 0.00316 µM (active); Ki [22]: 0.316 µM (active)

Which IC50 [23] does the source give for Cc1ccc(NC2=C/C(=N\S(=O)(=O)c3cccs3)c3ccccc3C2=O)c(C)c1 here?
Its IC50 is > 66.6 µM (inactive).

And the IC50 [24]?
The IC50 was 6.48 µM (active).

What about the EC50 [25] of the same compound?
Its EC50 is 2.51 µM (active).

And the EC50 [26]?
The EC50 was 1.1 µM (active).

What about the EC50 [27] of the same compound?
Its EC50 is 5.14 µM (active).

Which IC50 [28] does the source give for COc1ccc(/C=N/NC(=O)c2nn(-c3ccccc3)c(=O)c3c(N)scc23)cc1 here?
The IC50 was 0.346 µM (active).

For Oc1ccc(-c2cn3c(n2)SCC3)cc1O, which IC50 [29] is on record?
Its IC50 is 9.74 µM (active).

What about the IC50 [30] of the same compound?
The IC50 was 1.55 µM (active).

Which IC50 [31] does the source give for CC(=O)N(C1=C(Cl)C(=O)c2ccccc2C1=O)C1CCCCC1 here?
Its IC50 is 19.5 µM (inactive).

And the EC50 [32]?
The EC50 was > 150 µM (not active).

What about the AC50 [33] of the same compound?
Its AC50 is 21.5 µM (active).
